Source: patent US4863933A, “3-hydroxypyridines” (Smith Kline & French Laboratories Limited, priority 1986, dated 1989)

How the values were obtained:
histamine H1-receptor = experiment: in vivo inhibition of histamine induced bronchoconstriction in anaesthetised guinea pigs; conditions: intravenous antagonist dose giving DR-1 = 10, histamine dose-response 5 minutes after antagonist
Procedure: Guinea pigs of either sex are anaesthetised by intraperitoneal injection of sodium pentobarbitone, 90 mg/kg. The trachea is cannulated. The animal is respired artificially with a fixed volume of air just adequate to inflate the lungs. The pressure needed to inflate the lungs is monitored from the respiratory system using a pressure transducer. Intravenous injection of histamine causes dose-dependent increases in the pressure to inflate the lungs reflecting the bronchoconstrictor action of histamine. Responses to histamine can be antagonised using histamine H1 -receptor antagonists.
Dose-response curves to histamine are established at 20, 40, 80, 160 and 320 nmols/kg. Antagonists are then administered by intravenous injection and 5 minutes later a new histamine dose-response curve is established increasing the doses of histamine as necessary. The effect of the antagonist can be quantified by the displacement, to the right, of the histamine dose-response curve, expressed as a dose-ratio. A series of doses of antagonists may be given to each animal allowing calculation of dose-ratios for each dose of antagonist.

[1] = molecular target: T1, histamine H1-receptor (guinea pig ileum) (Cavia porcellus, UniProt P31389); experiment: in vitro guinea pig ileum test (histamine H1-antagonist activity); format: cell-based; conditions: isolated guinea pig ileum, magnesium free Tyrode solution, 30° C., 8 min contact, histamine as agonist; read-out: pA2 ileum (converted)
T1 construct: an isolated portion of the guinea pig ileum is secured under tension; from tissue; host or cells: isolated guinea pig ileum
T1 sequence (P31389 whole entry): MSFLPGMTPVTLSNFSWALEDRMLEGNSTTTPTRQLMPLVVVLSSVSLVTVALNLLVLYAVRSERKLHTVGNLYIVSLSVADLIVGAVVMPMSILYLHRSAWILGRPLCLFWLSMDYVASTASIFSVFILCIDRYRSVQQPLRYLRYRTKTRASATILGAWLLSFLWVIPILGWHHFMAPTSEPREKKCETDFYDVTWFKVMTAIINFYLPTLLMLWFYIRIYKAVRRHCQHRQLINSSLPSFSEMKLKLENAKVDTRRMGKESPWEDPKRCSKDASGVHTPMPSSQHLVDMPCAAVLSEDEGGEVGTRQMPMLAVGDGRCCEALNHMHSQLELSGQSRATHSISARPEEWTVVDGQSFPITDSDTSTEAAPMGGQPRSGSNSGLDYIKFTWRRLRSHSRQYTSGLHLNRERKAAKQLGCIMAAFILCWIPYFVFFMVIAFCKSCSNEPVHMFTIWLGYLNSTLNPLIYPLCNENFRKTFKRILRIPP
Procedure: In this test an isolated portion of the guinea pig ileum is secured under tension (500 mg) between an anchorage and a transducer in a 10 ml tissue bath and immersed in magnesium free Tyrode solution with constant aeration at a temperature of 30° C. The output from the transducer is amplified. The amplified output is in turn fed to a flat bed recorder. Measured amounts of histamine are added to the tissue bath so that the histamine concentration increases step-wise until the force of the contraction reaches a maximum. The tissue bath is washed out and filled with fresh magnesium free Tyrode solution containing compound under test. The solution is left in contact with the tissue for 8 min. and measured amounts of histamine are added again until a maximum contraction is recorded. The assay is repeated with increasing concentrations of test compound and the dose of histamine giving 50% of maximum contraction is noted. A dose ratio (DR) was calculated by comparing the concentrations of histamine required to produce 50% maximum response in the absence and in the presence of the antagonist. A plot of Log DR-1 against Log D (the concentration of compound under test) is made and the point of intersection with the Log (DR-1) ordinate is taken as the measure of the activity (pA2 value).

| SMILES | Guinea Pig bronchoconstriction DR-1 = 10 (histamine H1-receptor) | Kb [1] |
| --- | --- | --- |
| Cc1cc(Br)cnc1CCCCNc1ncc(Cc2cccnc2)cc1O [1(h), 2-[4-(5-Bromo-3-methylpyrid-2-yl)butylamino]-3-hydroxy-5-(pyrid-3-ylmethyl)pyridine] | 0.016 μm/kg | 1.95 nM |
| Cc1cc(Br)cnc1CCCCNc1ncc(Cc2cccnc2)cc1OP(=O)(O)O [1(i), 2-[4-(5-Bromo-3-methylpyrid-2-yl)butylamino]-5-(pyrid-3-ylmethyl)pyrid-3-yloxyphosphate] | 0.033 μm/kg | 8.13 nM |
| Oc1cc(Cc2cccnc2)cnc1NCCCC1CCCc2cccnc21 (stereo not shown) [2(e), 2-[3-(5,6,7,8-Tetrahydroquinol-8-yl)propylamino]-3-hydroxy-5-(pyrid-3-ylmethyl)pyridine] | 0.038 μm/kg | 9.55 nM |
| Cc1cc(Br)cnc1CCCNc1ncc(Cc2cccnc2)cc1O [3(h), 2-[3-(5-Bromo-3-methylpyrid-2-yl)-propylamino]-3-hydroxy-5-(pyrid-3-ylmethyl)pyridine] |  | 1.51 nM |
